# Assay results as given in patent US4847297A, “Use of penicillamine for treating immune damaging illnesses” (Degussa Aktiengesellschaft, priority 1985, dated 1989).
# Assays:
# [1] = system: HTLV-III virus (LAV-I virus); assay: inhibition of HTLV-III (LAV-I) virus replication in cell culture; type: cell-based, HTLV-III virus in H9 cells (human T-cell line); conditions: in vitro; for inhibition at 20 µg/mL / inhibition at 40 µg/mL: Human immunodeficiency virus 1, H9, 96 h, cell culture; for inhibition at 20 µg/mL: 20 μg/ml, read-out: prevention of replication of HTLV-III virus (LAV-I virus); for inhibition at 40 µg/mL: 40 μg/ml, read-out: effectiveness in vitro (prevention of virus replication)
# Description: At a concentrate of 20 μg/ml the replication of HTLV-III--virus (LAV-I-virus) is prevented in a cell culture with L-penicillamine to an extent of about 95% and with D-penicillamine to about 80%. At a concentration of 40 μg/ml, the effectiveness of both L-penicillamine and D-penicillamine in vitro is nearly 100%.
# (§1) HTLV-III virus infection of H9 cells (human T-cell line of a leukemia patient of the National Cancer Institute, Bethesda, Md., USA); the H9 cells were trreated with Polybrene (Hexadimethrine bromide) (2 μg/ml) for 30 minutes at 37° C., subsequently the Polybrene was washed out and the cells were infected with 2×10^8 HTLV virus particles per 4×10^5 H9 cells. Before the infection, the virus was incubated with the material at various concentrations for 45 minutes at 37° C. For controls, the virus was incubated under the same experimental conditions but without addition of the material. The cell cultures were analyzed on the 4th day after infection as follows:
# (§2) Immunofluorescence analysis: The effect of D- and L-penicillamine on the propagation of the HTLV-III virus in H9 cells was determined by measuring the proteins p15 and p24 (molecular weight 15,000 respectively 24,000) present in HTLV-III. The immunofluorescence analysis was carried out on fixed methanol:acetone (1:1) cells using monoclonal antibodies (National Cancer Institute USA) against HTLV-III p15 and p24. The infected cells treated with or without penicillamine were secured on toxoplasmosis glass slides. After 30 minutes treatment with methanol-acetone (1:1) at room temperature, the glass slides were stored in closed plastic containers at -20° C. until use. The monoclonal antibodies were added to duplicate wells, incubated at room temperature in a moist chamber for 1 hour and washed with PBS (phosphate buffered saline) solution containing 0.25% Triton X-100 for two hours. The cells were then exposed to goatantimouse IgG (Capell Labs.) bound with fluorescein (FITC) for 1 hour and washed with PBS buffer solution containing 0.25% Triton X-100 overnight. The glass sides were mounted with 50% glycerine and the cell fluorescence observed with a Zeiss fluorescence microscope.
# [2] = system: HTLV-III virus (viral protein p15); assay: propagation of HTLV-III in H9 cells, formation of viral protein p15, immunofluorescence with monoclonal antibodies; type: cell-based, HTLV-III virus in H9 cells (human T-cell line); conditions: for prevention of the formation of p15 virus protein (in words): FIG. 1, concentration dependence; for inhibition at 40 µg/mL: Human immunodeficiency virus 1, H9, 40 μg/ml, 4th day after infection
# Description: FIG. 1 is a graph of the effect of D- and L-penicillamine on the propagation of HTLV-III in H9 cells through the function of the concentration determined by the formation of the viral protein 15; and
# as §1, §2
# (§3) The effect of D- and L-penicillamine on the propagation of HTLV-III in H9 cells was determined through the function of the material concentration by the formation of the viral proteins p15 (FIG. 1) and p24 (FIG. 2) in an immunofluorescence assay with monoclonal antibodies.
# [3] = system: HTLV-III virus (viral protein p24); assay: propagation of HTLV-III in H9 cells, formation of viral protein p24, immunofluorescence with monoclonal antibodies; type: cell-based, HTLV-III virus in H9 cells (human T-cell line); conditions: for prevention of the formation of p24 (in words): FIG. 2, same manner as with p15; for IC100: Human immunodeficiency virus 1, H9, 96 h, p24, FIG. 2, 4th day after infection, read-out: concentration needed for complete inactivation of the viral replication
# Description: FIG. 2 is a similar graph where the determination was by the formation of viral protein p24.
# as §1, §2, §3
# [4] = in vitro; type: cell-based, human; conditions: human, h9 cells
# Description: as §1
# (§4) In order to show the selectivity of the effect on the replication of HTLV-III virus, the effect of D- and L-penicillamine on the growth of H9 cells can be examined.
# (§5) The number of cells was determined 4 days after the experiment began.
# [5] = system: HTLV-III infected H9 cells; assay: growth of HTLV-III infected H9 cells; type: cell-based, human; conditions: for Number of cells/ml × 10^-6, infected / effect on number of infected H9 cells (in words): 4 days after infection; for Number of cells/ml × 10^-6, infected: control 0.18; for effect on number of infected H9 cells (in words): increasing concentration; for protective effect on T-cells: infected H9 cells
# Description: as §1, §4, §5
# 4 days after the infection with the HTLV-III virus the number of H9 cells is reduced from 1.24×10^6 to 0.18×10^6.
# [6] = in vivo, cited from earlier work
# [7] = system: plasma proteins (preponderantly albumen); conditions: cited from earlier work
# [8] = system: non-infected H9 cells; assay: in vitro; type: cell-based, human
# Description: as §1, §4, §5
SMILES,inhibition at 20 µg/mL [1] [%],inhibition at 40 µg/mL [1] [%],prevention of the formation of p15 virus protein (in words) [2],inhibition at 40 µg/mL [2] [%],prevention of the formation of p24 (in words) [3],IC100 [3] [µg/mL],"Number of cells/ml × 10^-6, infected ([5]; 30 μg/ml) [cells/ml × 10^-6]","Number of cells/ml × 10^-6, infected ([5]; 40 μg/ml) [cells/ml × 10^-6]","Number of cells/ml × 10^-6, infected ([5]; 100 μg/ml) [cells/ml × 10^-6]",effect on number of infected H9 cells (in words) [5],protective effect on T-cells [5],further results
CC(C)(S)[C@@H](N)C(=O)O [D-penicillamine],~80,~100,concentration dependent prevention of the formation of p15 virus protein,98.5 to 99.4,prevent the formation of p24,40,0.27,0.35,0.8,considerable increase of the cell number,protective effect on T-cells,"MCC at 96 h [4]: > 100 µg/mL; resorption after oral administration ([6]; po): about 60%; distribution over the entire organism [6]: distributed relatively quickly over the entire organism; elimination in unchanged form [6]: up to 10%; route and form of elimination [6]: predominantly via the kidneys, the greatest part as disulfide; binding to plasma proteins [7]: bound to plasma proteins (preponderantly albumen); free (not protein bound) concentration with increasing dosage [7]: obviously increases with increasing dosage"
CC(C)(S)[C@H](N)C(=O)O [L-penicillamine],~95,~100,concentration dependent prevention of the formation of p15 virus protein,98.5 to 99.4,prevent the formation of p24,40,0.35,0.38,0.98,considerable increase of the cell number,protective effect on T-cells,"effectiveness at lower concentration, L- versus D-penicillamine (p15) ([2]; lower concentration, FIG. 1): more effective than D-penicillamine"
CC(C)(S)[C@H](N)C(=O)O [penicillamine],,,,,,,,,,,,inhibition of virus replication (in words) [1]: can greatly inhibit the virus replication; toxicity to the normal cell growth [8]: shows no toxicity to the normal cell growth
